# Values joined by “and” are separate entries in the source; they are usually repeats but may differ in a detail not shown here. Identical values can stand only once.
# System: 377384-186-R-J1-PDC complex spheroid viability
# Test: Anticancer human tumor 377384-186-R-J1-PDC patient-derived pancreatic carcinoma cell line growth inhibition [CLK]
# Conditions: for viability, T/C: stronger effect = lower value
# Procedure, shortened: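 Multi-cell-type spheroids combined patient-derived tumor cells with HUVEC endothelial cells and human mesenchymal stem cells. Paired agents were dosed in half-log steps down from about clinical Cmax, or from 10 microM where Cmax was unknown.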
# [1] = curve of first compound, second compound 0.0316 µM
# [2] = curve of first compound, second compound 0.1 µM
# [3] = curve of first compound, second compound 0.316 µM
# [4] = curve of first compound, second compound 1 µM
# [5] = curve of first compound, second compound 3.16 µM
# [6] = curve of first compound, second compound 10 µM
# [7] = second compound 0.0316 µM, first compound 0.0316 µM
# [8] = second compound 0.0316 µM, first compound 0.1 µM
# [9] = second compound 0.0316 µM, first compound 0.316 µM
# [10] = second compound 0.0316 µM, first compound 1 µM
# [11] = second compound 0.0316 µM, first compound 3.16 µM
# [12] = second compound 0.0316 µM, first compound 10 µM
# [13] = second compound 0.1 µM, first compound 0.0316 µM
# [14] = second compound 0.1 µM, first compound 0.1 µM
# [15] = second compound 0.1 µM, first compound 0.316 µM
# [16] = second compound 0.1 µM, first compound 1 µM
# [17] = second compound 0.1 µM, first compound 3.16 µM
# [18] = second compound 0.1 µM, first compound 10 µM
# [19] = second compound 0.316 µM, first compound 0.0316 µM
# [20] = second compound 0.316 µM, first compound 0.1 µM
# [21] = second compound 0.316 µM, first compound 0.316 µM
# [22] = second compound 0.316 µM, first compound 1 µM
# [23] = second compound 0.316 µM, first compound 3.16 µM
# [24] = second compound 0.316 µM, first compound 10 µM
# [25] = second compound 1 µM, first compound 0.0316 µM
# [26] = second compound 1 µM, first compound 0.1 µM
# [27] = second compound 1 µM, first compound 0.316 µM
# [28] = second compound 1 µM, first compound 1 µM
# [29] = second compound 1 µM, first compound 3.16 µM
# [30] = second compound 1 µM, first compound 10 µM
# [31] = second compound 3.16 µM, first compound 0.0316 µM
# [32] = second compound 3.16 µM, first compound 0.1 µM
# [33] = second compound 3.16 µM, first compound 0.316 µM
# [34] = second compound 3.16 µM, first compound 1 µM
# [35] = second compound 3.16 µM, first compound 3.16 µM
# [36] = second compound 3.16 µM, first compound 10 µM
# [37] = second compound 10 µM, first compound 0.0316 µM
# [38] = second compound 10 µM, first compound 0.1 µM
# [39] = second compound 10 µM, first compound 0.316 µM
# [40] = second compound 10 µM, first compound 1 µM
# [41] = second compound 10 µM, first compound 3.16 µM
# [42] = second compound 10 µM, first compound 10 µM
# 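Note: spheroids exposed to agents for 7 days before reading.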
# 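Throughout, for viability, T/C: luminescence signal used as a stand-in for viable cells.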
smiles,measurement,setting,value
NC(=O)C(=Cn1cnc(-c2cc(C(F)(F)F)cc(C(F)(F)F)c2)n1)c1cncnc1 + CNC(=O)c1ccc(Nc2nc(OC3CCCC3)c3c(-c4ccc5nc(C)oc5c4)c[nH]c3n2)c(OC)c1,IC50,[1],0.0526 µM
same,IC50,[2],0.0123 µM
same,IC50,[3],< 0.00949 µM
same,IC50,[4],< 0.00949 µM
same,IC50,[5],< 0.00949 µM
same,IC50,[6],< 0.00949 µM
same,"viability, T/C","second compound 0.0316 µM, first compound 0.00949 µM",97.1%
same,"viability, T/C","second compound 0.0316 µM, first compound 0.03 µM",59.2%
same,"viability, T/C","second compound 0.0316 µM, first compound 0.0949 µM",40.4%
same,"viability, T/C","second compound 0.0316 µM, first compound 0.3 µM",21.2%
same,"viability, T/C","second compound 0.0316 µM, first compound 0.949 µM",5.59%
same,"viability, T/C","second compound 0.0316 µM, first compound 3 µM",2.3%
same,"viability, T/C","second compound 0.1 µM, first compound 0.00949 µM",52.9%
same,"viability, T/C","second compound 0.1 µM, first compound 0.03 µM",39.7%
same,"viability, T/C","second compound 0.1 µM, first compound 0.0949 µM",25.5%
same,"viability, T/C","second compound 0.1 µM, first compound 0.3 µM",16.1%
same,"viability, T/C","second compound 0.1 µM, first compound 0.949 µM",3.56%
same,"viability, T/C","second compound 0.1 µM, first compound 3 µM",1.95%
same,"viability, T/C","second compound 0.316 µM, first compound 0.00949 µM",19.2%
same,"viability, T/C","second compound 0.316 µM, first compound 0.03 µM",17.7%
same,"viability, T/C","second compound 0.316 µM, first compound 0.0949 µM",17.1%
same,"viability, T/C","second compound 0.316 µM, first compound 0.3 µM",8.59%
same,"viability, T/C","second compound 0.316 µM, first compound 0.949 µM",2.04%
same,"viability, T/C","second compound 0.316 µM, first compound 3 µM",2.27%
same,"viability, T/C","second compound 1 µM, first compound 0.00949 µM",18.9%
same,"viability, T/C","second compound 1 µM, first compound 0.03 µM",20.9%
same,"viability, T/C","second compound 1 µM, first compound 0.0949 µM",16.2%
same,"viability, T/C","second compound 1 µM, first compound 0.3 µM",7.4%
same,"viability, T/C","second compound 1 µM, first compound 0.949 µM",1.54%
same,"viability, T/C","second compound 1 µM, first compound 3 µM",0.93%
same,"viability, T/C","second compound 3.16 µM, first compound 0.00949 µM",18.7%
same,"viability, T/C","second compound 3.16 µM, first compound 0.03 µM",18.7%
same,"viability, T/C","second compound 3.16 µM, first compound 0.0949 µM",15.5%
same,"viability, T/C","second compound 3.16 µM, first compound 0.3 µM",6.58%
same,"viability, T/C","second compound 3.16 µM, first compound 0.949 µM",1.89%
same,"viability, T/C","second compound 3.16 µM, first compound 3 µM",1.09%
same,"viability, T/C","second compound 10 µM, first compound 0.00949 µM",21.7%
same,"viability, T/C","second compound 10 µM, first compound 0.03 µM",17.9%
same,"viability, T/C","second compound 10 µM, first compound 0.0949 µM",12.8%
same,"viability, T/C","second compound 10 µM, first compound 0.3 µM",6.06%
same,"viability, T/C","second compound 10 µM, first compound 0.949 µM",1.42%
same,"viability, T/C","second compound 10 µM, first compound 3 µM",1.91%
CC(=O)O[C@H]1C(=O)[C@@]2(C)[C@H]([C@H](OC(=O)c3ccccc3)[C@]3(O)C[C@H](OC(=O)[C@H](O)[C@@H](NC(=O)c4ccccc4)c4ccccc4)C(C)=C1C3(C)C)[C@]1(OC(C)=O)CO[C@@H]1C[C@@H]2O + CNC(=O)c1ccc(Nc2nc(OC3CCCC3)c3c(-c4ccc5nc(C)oc5c4)c[nH]c3n2)c(OC)c1,IC50,[1],< 0.0316 µM
same,IC50,[2],< 0.0316 µM
same,IC50,[3],< 0.0316 µM
same,IC50,[4],< 0.0316 µM
same,IC50,[5],< 0.0316 µM
same,IC50,[6],< 0.0316 µM
same,"viability, T/C",[7],11.1%
same,"viability, T/C",[8],9.78%
same,"viability, T/C",[9],11.1%
same,"viability, T/C",[10],10.2%
same,"viability, T/C",[11],12.7%
same,"viability, T/C",[12],20.1%
same,"viability, T/C",[13],14.4%
same,"viability, T/C",[14],16.9%
same,"viability, T/C",[15],20.5%
same,"viability, T/C",[16],21.8%
same,"viability, T/C",[17],28.9%
same,"viability, T/C",[18],35.2%
same,"viability, T/C",[19],20%
same,"viability, T/C",[20],21.2%
same,"viability, T/C",[21],29%
same,"viability, T/C",[22],36.6%
same,"viability, T/C",[23],42.3%
same,"viability, T/C",[24],47.3%
same,"viability, T/C",[25],21.7%
same,"viability, T/C",[26],22.3%
same,"viability, T/C",[27],29.6%
same,"viability, T/C",[28],37.9%
same,"viability, T/C",[29],40.5%
same,"viability, T/C",[30],49.1%
same,"viability, T/C",[31],18%
same,"viability, T/C",[32],21.7%
same,"viability, T/C",[33],27.5%
same,"viability, T/C",[34],34.4%
same,"viability, T/C",[35],38.6%
same,"viability, T/C",[36],45.5%
same,"viability, T/C",[37],17.7%
same,"viability, T/C",[38],22.3%
same,"viability, T/C",[39],29.7%
same,"viability, T/C",[40],37.2%
same,"viability, T/C",[41],38.7%
same,"viability, T/C",[42],42.8%
CC1COCCN1c1cc(C2(S(C)(=N)=O)CC2)nc(-c2ccnc3[nH]ccc23)n1 (stereo not given) + CN1CCN(c2cc(C(=O)Nc3cc4cc(-c5cnn(C)c5)ccc4cn3)ccn2)CC1,IC50,[1],2.16 µM
same,IC50,[2],1.84 µM
same,IC50,[3],< 0.0316 µM
same,IC50,[4],< 0.0316 µM
same,IC50,[5],< 0.0316 µM
same,IC50,[6],< 0.0316 µM
same,"viability, T/C",[7],97.6%
same,"viability, T/C",[8],102%
same,"viability, T/C",[9],97.8%
same,"viability, T/C",[10],77.3%
same,"viability, T/C",[11],36.7%
same,"viability, T/C",[12],19.1%
same,"viability, T/C",[13],110%
same,"viability, T/C",[14],108%
same,"viability, T/C",[15],95.5%
same,"viability, T/C",[16],69.1%
same,"viability, T/C",[17],33.1%
same,"viability, T/C",[18],17.2%
same,"viability, T/C",[19],27%
same,"viability, T/C",[20],32%
same,"viability, T/C",[21],24.1%
same,"viability, T/C",[22],24.8%
same,"viability, T/C",[23],14.1%
same,"viability, T/C",[24],9.42%
same,"viability, T/C",[25],1.04%
same,"viability, T/C",[26],1.24%
same,"viability, T/C",[27],1.39%
same,"viability, T/C",[28],1.11%
same,"viability, T/C",[29],0.85%
same,"viability, T/C",[30],0.48%
same,"viability, T/C",[31],0.45%
same,"viability, T/C",[32],0.34%
same,"viability, T/C",[33],0.48%
same,"viability, T/C",[34],0.44%
same,"viability, T/C",[35],0.69%
same,"viability, T/C",[36],0.65%
same,"viability, T/C",[37],0.51%
same,"viability, T/C",[38],0.45%
same,"viability, T/C",[39],1.23%
same,"viability, T/C",[40],0.54%
same,"viability, T/C",[41],1.37%
same,"viability, T/C",[42],0.58%
Nc1ccn(C2OC(CO)C(O)C2(F)F)c(=O)n1 (stereo not given) + CN1CCN(c2cc(C(=O)Nc3cc4cc(-c5cnn(C)c5)ccc4cn3)ccn2)CC1,IC50,[1],< 0.0316 µM
same,IC50,[2],< 0.0316 µM
same,IC50,[3],< 0.0316 µM
same,IC50,[4],< 0.0316 µM
same,IC50,[5],< 0.0316 µM
same,IC50,[6],< 0.0316 µM
same,"viability, T/C",[7],7.87%
same,"viability, T/C",[8],4.22%
same,"viability, T/C",[9],5.68%
same,"viability, T/C",[10],2.98%
same,"viability, T/C",[11],2.97%
same,"viability, T/C",[12],2.28%
same,"viability, T/C",[13],9.1%
same,"viability, T/C",[14],4.08%
same,"viability, T/C",[15],3.35%
same,"viability, T/C",[16],3.48%
same,"viability, T/C",[17],2.39%
same,"viability, T/C",[18],1.85%
same,"viability, T/C",[19],11.6%
same,"viability, T/C",[20],6.64%
same,"viability, T/C",[21],4.53%
same,"viability, T/C",[22],3.35%
same,"viability, T/C",[23],2.23%
same,"viability, T/C",[24],2.18%
same,"viability, T/C",[25],1.03%
same,"viability, T/C",[26],0.46%
same,"viability, T/C",[27],1.22%
same,"viability, T/C",[28],0.37%
same,"viability, T/C",[29],0.88%
same,"viability, T/C",[30],1.48%
same,"viability, T/C",[31],0.37%
same,"viability, T/C",[32],0.29%
same,"viability, T/C",[33],0.92%
same,"viability, T/C",[34],0.2%
same,"viability, T/C",[35],0.33%
same,"viability, T/C",[36],0.29%
same,"viability, T/C",[37],0.21%
same,"viability, T/C",[38],0.61%
same,"viability, T/C",[39],0.42%
same,"viability, T/C",[40],0.38%
same,"viability, T/C",[41],0.23%
same,"viability, T/C",[42],0.54%
C=CC(=O)Nc1cc(Nc2nccc(-c3cn(C)c4ccccc34)n2)c(OC)cc1N(C)CCN(C)C,"viability, T/C",compound 0.000949 µM,104% and 105%
same,"viability, T/C",compound 0.003 µM,84.7% and 99.9%
same,"viability, T/C",compound 0.00949 µM,85.3% and 108%
same,"viability, T/C",compound 0.03 µM,85.4% and 97.6%
same,"viability, T/C",compound 0.0949 µM,78% and 77.1%
same,"viability, T/C",compound 0.3 µM,50% and 62%
same,IC50,curve of compound,> 0.3 µM

# Source: PubChem BioAssay AID2060616 (Molecular Pharmacology Branch, DTP, NCI, 2025)
